What was measured:
Assay type in all cases: in vivo
Settings in all cases: 250 g/ha, evaluated after 13 days
[1] = tested on: Echinochloa crus-galli (ECHCG); assay: Pre-emergence Test, glasshouse, ECHCG
Summary of the method: (§1)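 Pots were sprayed 1 day after sowing (pre-emergence) or after 8 days' growth (post-emergence) at 250 g/ha, formulated in acetone/water 50:50 with 0.5% Tween 20. Glasshouse conditions were 24/16 °C, 14 h light, 65% humidity. Damage was scored after 13 days on a 1–5 scale (5 = 81–100%).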

[2] = tested on: Amaranthus retoflexus (AMARE); assay: Pre-emergence Test, glasshouse, AMARE
Summary of the method: as §1

Setaria faberi (SETFA) [3] = assay: Post-emergence Test, glasshouse, SETFA
Summary of the method: as §1

[4] = tested on: Amaranthus retoflexus (AMARE); assay: Post-emergence Test, glasshouse, AMARE
Summary of the method: as §1

Setaria faberi (SETFA) [5] = assay: Pre-emergence Test, glasshouse, SETFA
Summary of the method: as §1

IPOHE [6] = assay: Pre-emergence Test, glasshouse, IPOHE
Summary of the method: as §1

IPOHE [7] = assay: Post-emergence Test, glasshouse, IPOHE
Summary of the method: as §1

[8] = tested on: Echinochloa crus-galli (ECHCG); assay: Post-emergence Test, glasshouse, ECHCG
Summary of the method: as §1

ABUTH [9] = assay: Post-emergence Test, glasshouse, ABUTH
Summary of the method: as §1

ABUTH [10] = assay: Pre-emergence Test, glasshouse, ABUTH
Summary of the method: as §1

SMILES | percentage damage caused to the plant, five-point scale, ECHCG [1] | percentage damage caused to the plant, five-point scale, AMARE [2] | percentage damage caused to the plant, five-point scale, SETFA (Setaria faberi (SETFA) [3]) | percentage damage caused to the plant, five-point scale, AMARE [4] | percentage damage caused to the plant, five-point scale, SETFA (Setaria faberi (SETFA) [5]) | percentage damage caused to the plant, five-point scale, IPOHE (IPOHE [6]) | percentage damage caused to the plant, five-point scale, IPOHE (IPOHE [7]) | percentage damage caused to the plant, five-point scale, ECHCG [8] | percentage damage caused to the plant, five-point scale, ABUTH (ABUTH [9]) | percentage damage caused to the plant, five-point scale, ABUTH (ABUTH [10])
FC(F)(F)CCCn1nc(Cl)c2c(Cl)c(Br)cc(Oc3ncc(Cl)cn3)c21 [Compound 1.019] | 1 (1=0-20%) | 1 (1=0-20%) | 2 (2=21-40%) | 4 (4=61-80%) | 1 (1=0-20%) | 1 (1=0-20%) | 1 (1=0-20%) | 2 (2=21-40%) | 1 (1=0-20%) | 1 (1=0-20%)
CC(C)Cn1nc(Cl)c2cccc(Oc3ncc(Cl)cn3)c21 [Compound 1.057] | 2 (2=21-40%) | 2 (2=21-40%) | 1 (1=0-20%) | 3 (3=41-60%) | 4 (4=61-80%) | 1 (1=0-20%) | 1 (1=0-20%) | 1 (1=0-20%) | 2 (2=21-40%) | 2 (2=21-40%)
COCCn1nc(Cl)c2cccc(Oc3ncc(Cl)cn3)c21 [Compound 1.034] | 5 (5=81-100%) | 5 (5=81-100%) | 4 (4=61-80%) | 5 (5=81-100%) | 5 (5=81-100%) | 3 (3=41-60%) | 4 (4=61-80%) | 4 (4=61-80%) | 4 (4=61-80%) | 2 (2=21-40%)
COCCCn1nc(Cl)c2cccc(Oc3ncc(Cl)cn3)c21 [Compound 1.060] | 4 (4=61-80%) | 4 (4=61-80%) | 3 (3=41-60%) | 3 (3=41-60%) | 4 (4=61-80%) | 2 (2=21-40%) | 2 (2=21-40%) | 4 (4=61-80%) | 3 (3=41-60%) | 4 (4=61-80%)
CC(C)=CCCn1nc(Cl)c2cccc(Oc3ncc(Cl)cn3)c21 [Compound 1.066] | 4 (4=61-80%) | 3 (3=41-60%) | 3 (3=41-60%) | 4 (4=61-80%) | 5 (5=81-100%) | 1 (1=0-20%) | 2 (2=21-40%) | 3 (3=41-60%) | 4 (4=61-80%) | 2 (2=21-40%)
FC(F)(F)OCCn1nc(Cl)c2cccc(Oc3ncc(Cl)cn3)c21 [Compound 1.052] | 4 (4=61-80%) | 5 (5=81-100%) | 3 (3=41-60%) | 5 (5=81-100%) | 5 (5=81-100%) | 1 (1=0-20%) | 3 (3=41-60%) | 4 (4=61-80%) | 5 (5=81-100%) | 3 (3=41-60%)
